Results from paper PMC2693909 (Journal of molecular biology, 2009).

Target: Hsc70 NBD (Hsc-70-NBD) (Bos taurus, UniProt P19120)
Test: […]-1H NMR chemical shift differences, ATP versus ADP.Pi state
Type: binding
Conditions: neutral aqueous solution

Sequence of Hsc70 NBD (Hsc-70-NBD) (P19120 1-383 limits assumed): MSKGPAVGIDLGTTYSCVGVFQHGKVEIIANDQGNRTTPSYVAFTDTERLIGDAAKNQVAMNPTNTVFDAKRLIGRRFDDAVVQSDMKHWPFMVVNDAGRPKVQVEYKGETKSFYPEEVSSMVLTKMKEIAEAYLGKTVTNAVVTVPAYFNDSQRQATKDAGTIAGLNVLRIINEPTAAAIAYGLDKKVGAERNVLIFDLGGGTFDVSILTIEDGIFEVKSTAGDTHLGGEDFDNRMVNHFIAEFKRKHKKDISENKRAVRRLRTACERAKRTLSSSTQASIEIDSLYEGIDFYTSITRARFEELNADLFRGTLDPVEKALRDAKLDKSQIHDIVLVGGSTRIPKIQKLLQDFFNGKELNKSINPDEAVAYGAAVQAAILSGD

For `Nc1ncnc2c1ncn2[C@@H]1O[C@H](COP(=O)(O)OP(=O)(O)O)[C@@H](O)[C@H]1O` [ADP], the “15N-1H NMR chemical shift differences, ATP versus ADP.Pi state” value (ADP.Pi state) was “NMR spectra of the isolated NBD of Hsc70 between the ADP.Pi and ATP state”.

For `Nc1ncnc2c1ncn2[C@@H]1O[C@H](COP(=O)(O)OP(=O)(O)OP(=O)(O)O)[C@@H](O)[C@H]1O` [ATP], the “15N-1H NMR chemical shift differences, ATP versus ADP.Pi state” value (ATP state) was “NMR spectra of the isolated NBD of Hsc70 between the ADP.Pi and ATP state”.
